{"source": "patent US10689381B2", "about": "(priority 2017, dated 2020)", "key": {"[1]": {"system": "HCT116", "assay": "cells", "type": "cell-based, human", "settings": "for IC50: read-out: IC50 HCT116", "method_in_brief": "(§1)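 Cells seeded at 30,000 cells/mL in DMEM with 10% FBS, then exposed for 72 h to compound at six concentrations spanning 0–1000 nM or 0–10000 nM, in duplicate. Final incubation at 37 °C lasted 5 min for L1210 and 15 min for HCT116.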"}, "[2]": {"system": "L1210", "assay": "cells", "type": "cell-based, mouse", "method_in_brief": "as §1"}, "[3]": {"settings": "vinblastine-sensitive cell lines"}}, "note": "Where two headings read alike, the source gives them in different places.", "data": [{"smiles": "CC[C@]1(NC(=O)/C=C/c2ccsc2)C[C@H]2CN(CCc3c([nH]c4ccccc34)[C@@](C(=O)OC)(c3cc4c(cc3OC)N(C)[C@H]3[C@@](O)(C(=O)OC)[C@H](OC(C)=O)[C@]5(CC)C=CCN6CC[C@]43[C@@H]65)C2)C1", "note": "[Compound 114]", "values": [{"measurement": "IC50", "setting": "[1]; Table 3", "result": 0.6, "unit": "nM"}, {"measurement": "IC50", "setting": "[2]; Table 3", "result": 0.5, "unit": "nM"}]}, {"smiles": "CCC1(NC(=O)c2cccc3ccccc23)CC2CN(CCc3c([nH]c4ccccc34)C(C(=O)OC)(c3cc4c(cc3OC)N(C)C3C(O)(C(=O)OC)C(OC(C)=O)C5(CC)C=CCN6CCC43C65)C2)C1", "note": "(stereo not shown) [Compound 115]", "values": [{"measurement": "IC50", "setting": "[1]; Table 4", "result": 65, "unit": "nM"}, {"measurement": "potency relative to vinblastine (less potent / reduced activity)", "setting": "[1]; [3]", "result": "roughly 10 fold"}, {"measurement": "IC50", "setting": "[2]; Table 4", "result": 60, "unit": "nM"}]}, {"smiles": "CCC1(NC(=O)c2ccc3ccccc3c2)CC2CN(CCc3c([nH]c4ccccc34)C(C(=O)OC)(c3cc4c(cc3OC)N(C)C3C(O)(C(=O)OC)C(OC(C)=O)C5(CC)C=CCN6CCC43C65)C2)C1", "note": "(stereo not shown) [Compound 116]", "values": [{"measurement": "IC50", "setting": "[1]; Table 4", "result": 2.3, "unit": "nM"}, {"measurement": "potency relative to vinblastine (more potent)", "setting": "[1]; [3]", "result": "approximately 3 fold"}, {"measurement": "IC50", "setting": "[2]; Table 4", "result": 1.9, "unit": "nM"}]}, {"smiles": "CCC1(NC(=O)c2ccc3cc(N)ccc3c2)CC2CN(CCc3c([nH]c4ccccc34)C(C(=O)OC)(c3cc4c(cc3OC)N(C)C3C(O)(C(=O)OC)C(OC(C)=O)C5(CC)C=CCN6CCC43C65)C2)C1", "note": "(stereo not shown) [Compound 117]", "values": [{"measurement": "IC50", "setting": "[1]; Table 4", "result": 0.8, "unit": "nM"}, {"measurement": "IC50", "setting": "[2]; Table 4", "result": 0.7, "unit": "nM"}]}, {"smiles": "CCC1(NC(=O)c2ccc3cc(NC(=O)OC(C)(C)C)ccc3c2)CC2CN(CCc3c([nH]c4ccccc34)C(C(=O)OC)(c3cc4c(cc3OC)N(C)C3C(O)(C(=O)OC)C(OC(C)=O)C5(CC)C=CCN6CCC43C65)C2)C1", "note": "(stereo not shown) [Compound 118]", "values": [{"measurement": "IC50", "setting": "[1]; Table 4", "result": 6.5, "unit": "nM"}, {"measurement": "IC50", "setting": "[2]; Table 4", "result": 5, "unit": "nM"}]}, {"smiles": "CCC1(NC(=O)c2ccc3cc(OC)ccc3c2)CC2CN(CCc3c([nH]c4ccccc34)C(C(=O)OC)(c3cc4c(cc3OC)N(C)C3C(O)(C(=O)OC)C(OC(C)=O)C5(CC)C=CCN6CCC43C65)C2)C1", "note": "(stereo not shown) [Compound 119]", "values": [{"measurement": "IC50", "setting": "[1]; Table 4", "result": 3.5, "unit": "nM"}, {"measurement": "IC50", "setting": "[2]; Table 4", "result": 2.5, "unit": "nM"}]}, {"smiles": "CCC1(NC(=O)c2ccc3cccc(OC)c3c2)CC2CN(CCc3c([nH]c4ccccc34)C(C(=O)OC)(c3cc4c(cc3OC)N(C)C3C(O)(C(=O)OC)C(OC(C)=O)C5(CC)C=CCN6CCC43C65)C2)C1", "note": "(stereo not shown) [Compound 120]", "values": [{"measurement": "IC50", "setting": "[1]; Table 4", "result": 13, "unit": "nM"}, {"measurement": "IC50", "setting": "[2]; Table 4", "result": 10, "unit": "nM"}]}, {"smiles": "CCC1(NC(=O)c2ccc3c(c2)C(C)(C)CCC3(C)C)CC2CN(CCc3c([nH]c4ccccc34)C(C(=O)OC)(c3cc4c(cc3OC)N(C)C3C(O)(C(=O)OC)C(OC(C)=O)C5(CC)C=CCN6CCC43C65)C2)C1", "note": "(stereo not shown) [Compound 123]", "values": [{"measurement": "IC50", "setting": "[1]; Table 4", "result": 7.8, "unit": "nM"}, {"measurement": "IC50", "setting": "[2]; Table 4", "result": 7.4, "unit": "nM"}]}, {"smiles": "CCC1(NC(=O)c2ccc3c(c2)CCC3)CC2CN(CCc3c([nH]c4ccccc34)C(C(=O)OC)(c3cc4c(cc3OC)N(C)C3C(O)(C(=O)OC)C(OC(C)=O)C5(CC)C=CCN6CCC43C65)C2)C1", "note": "(stereo not shown) [Compound 124]", "values": [{"measurement": "IC50", "setting": "[1]; Table 4", "result": 5.6, "unit": "nM"}, {"measurement": "potency relative to vinblastine (more potent)", "setting": "[1]; [3]", "result": "about 2 fold"}, {"measurement": "IC50", "setting": "[2]; Table 4", "result": 5, "unit": "nM"}]}, {"smiles": "CCC1(NC(=O)C2Cc3ccccc3C2)CC2CN(CCc3c([nH]c4ccccc34)C(C(=O)OC)(c3cc4c(cc3OC)N(C)C3C(O)(C(=O)OC)C(OC(C)=O)C5(CC)C=CCN6CCC43C65)C2)C1", "note": "(stereo not shown) [Compound 125]", "values": [{"measurement": "IC50", "setting": "[1]; Table 4", "result": 15, "unit": "nM"}, {"measurement": "IC50", "setting": "[2]; Table 4", "result": 30, "unit": "nM"}]}, {"smiles": "CCC1(NC(=O)c2ccc3c(c2)CCCCC3)CC2CN(CCc3c([nH]c4ccccc34)C(C(=O)OC)(c3cc4c(cc3OC)N(C)C3C(O)(C(=O)OC)C(OC(C)=O)C5(CC)C=CCN6CCC43C65)C2)C1", "note": "(stereo not shown) [Compound 126]", "values": [{"measurement": "IC50", "setting": "[1]; Table 4", "result": 4.8, "unit": "nM"}, {"measurement": "IC50", "setting": "[2]; Table 4", "result": 6.1, "unit": "nM"}]}, {"smiles": "CC[C@]1(NC(=O)c2ccc3cc4ccccc4cc3c2)C[C@H]2CN(CCc3c([nH]c4ccccc34)[C@@](C(=O)OC)(c3cc4c(cc3OC)N(C)[C@H]3[C@@](O)(C(=O)OC)[C@H](OC(C)=O)[C@]5(CC)C=CCN6CC[C@]43[C@@H]65)C2)C1", "note": "[Compound 127]", "values": [{"measurement": "IC50", "setting": "[1]; Table 4", "result": 60, "unit": "nM"}, {"measurement": "IC50", "setting": "[2]; Table 4", "result": 40, "unit": "nM"}]}, {"smiles": "CCC1(NC(=O)c2ccncc2)CC2CN(CCc3c([nH]c4ccccc34)C(C(=O)OC)(c3cc4c(cc3OC)N(C)C3C(O)(C(=O)OC)C(OC(C)=O)C5(CC)C=CCN6CCC43C65)C2)C1", "note": "(stereo not shown) [Compound 128]", "values": [{"measurement": "IC50", "setting": "[1]; Table 5", "result": 0.4, "unit": "nM"}, {"measurement": "IC50", "setting": "[2]; Table 5", "result": 0.4, "unit": "nM"}]}, {"smiles": "CCC1(NC(=O)c2cccnc2)CC2CN(CCc3c([nH]c4ccccc34)C(C(=O)OC)(c3cc4c(cc3OC)N(C)C3C(O)(C(=O)OC)C(OC(C)=O)C5(CC)C=CCN6CCC43C65)C2)C1", "note": "(stereo not shown) [Compound 129]", "values": [{"measurement": "IC50", "setting": "[1]; Table 5", "result": 0.6, "unit": "nM"}, {"measurement": "IC50", "setting": "[2]; Table 5", "result": 0.7, "unit": "nM"}]}]}
